According to patent publication US20090317372A1, “SMALL MOLECULES FOR THE REDUCTION OF HIGH BLOOD GLUCOSE LEVEL” (priority 2008, published 2009):

Tests used:
Format in all cases: in vivo
C57/BL/6 mice [1] = assay: Blood glucose level in normal (non-diabetic) mice without glucose challenge; settings: food deprived 2 h
Method: Female C57/BL/6 mice (25-27-g body weight) were deprived of food for 2 hours and then injected with 4.5-mg/kg of CCcompound1. Blood samples for glucose measurements were taken from the eyes (canthus) just before the administration of CCcompound1 (0 min) as well as 30 min and 120 min after the administration of CCcompound1. Glucose concentrations in whole blood samples were immediately measured with the Fast Glucose C test. The data are the mean±std.dev. of 5 determinations, i.e. one determination with each of the 5 animals. […] In this experiment, the period of food deprivation was short enough that compensatory mechanisms could maintain the blood glucose level near the normal 5-mM value. The condition employed also reflects the human eating habits, because normally there is at least a 2 hours interval between meals and snacks. Thus, with normal subjects under normal conditions, CC compounds are not expected to appreciably change the physiological level of blood glucose level that is about 5-mM on average.

C57/BL/6 mice [2] = assay: Glucose tolerance test with normal mice, PALP and CCcompound1 combined
Method: Female C57/BL/6 mice weighing 24-26-g and fasted for 12 hours before i.p. glucose administration (3 g/kg) were used. None of the animals received any food during the experiment other than glucose. One group of animals was untreated while animals in other groups received subcutaneous (s.c.) injections of 2.0 or 4.5-mg/kg of CCcompound1 either 30 min or 60 min prior to glucose administration as indicated in TABLE 5. Two groups of animals received i.p. injections of 0.4-mg per mouse (˜16-mg per kg) of highly purified PALP 24 hours prior to glucose administration. Purification of PALP was described in detail earlier [Z. Kiss, U.S. Pat. No. 7,048,914, “Placental Alkaline Phosphatase to Control Diabetes]. Animals in one of the PALP treated group also received s.c. injections of 4.5-mg/kg of CCcompound1 30 min prior to glucose administration as indicated in TABLE 5. Blood samples were taken and glucose concentrations were immediately measured as described earlier. Each group included five animals. The data are the mean±std. dev. of 5 determinations, i.e. one determination with each of the five animals. “-min” and “-h” indicates the length of period in minutes and hours, respectively, elapsed between the administration of test agents (first) and glucose (second).

mice with PC-3 tumor = assay: Glucose tolerance test in the PC-3 tumor model, chronic and acute CCcompound1
Method: The experimental PC-3 human tumors were developed in a homozygous line of C.B.-171 cr scid/scid adult female mice that were kept at specified pathogen free (SPF) hygienic level. Treatments with CCcompound1 (4.5 mg/kg) were started on day 12 after tumor implantation and conducted for 5+5 days with 2 treatment-free days inserted between the 2 series of treatments. A control group (10 mice) received no treatment, while another group (10 mice) received 4.5-mg/kg of CCcompound1 once every day between days 12-24. The results, shown in TABLE 8, indicate that between days 12 and 24 after tumor implantation, the prostate tumor caused about 6.9-g loss in lean body weight (4.1-g loss in total body weight). In contrast, animals treated with CCcompound1 actually gained 6.3-g lean body weight.
Tumors and cachexia are usually associated with insulin resistance. […] Both groups were starved for 14 hours and divided into two sub-groups; one subgroup remained untreated on day 25, another subgroup was administered 4.5-mg/kg of CCcompound1 60 min prior to administration of 3-g/kg of glucose. Blood samples were taken and blood glucose was analyzed as described earlier. […] In contrast, in animals that received chronic (C) treatment with CCcompound1 for 12 days, reduction in blood glucose level was clearly faster. Importantly, acute (A) treatment with CCcompound1 was almost as effective in cancer mice as in normal mice in reducing blood glucose level

ob/ob mice = assay: Glucose tolerance test with ob/ob mice
Method: In this experiment, 43 days old ob/ob mice weighing 40.3±1.8-g on average were used. One group of mice (5 animals) remained untreated for the subsequent 14 days. Two other groups of mice (each including 5 animals) were treated on each day for 13 days with 4.5-mg/kg dose of CCcompound1. On the 14th day the first group received only i.p. injection of glucose (3-g/kg) (first column in TABLE 13); the second group first received s.c. injection of CCcompound1, followed six hours later by i.p. injection of glucose (3-g/kg) (second column in TABLE 13); the third group first received s.c. injection of CCcompound1, followed 45 min later by i.p. injection of glucose (3-g/kg) (third column in TABLE 13). In each case, blood was first drawn 1-5 min prior to the administration of glucose, followed by drawing blood samples at 30 min, 60 min, 120 min and 180 min. The results shown in TABLE 13 indicate that CCcompound1 can effectively lower blood glucose level even after administration of a large amount of glucose. […] This probably means that the effect of CCcompound1 on blood glucose level requires its physical presence in the circulation and is not mediated by a secondary mechanism.

## Cc1c(OCC(O)C[N+](C)(C)C)cc2c(=O)c3ccccc3sc2c1C.[Cl-] (centres unmarked) [CCcompound 1, [3-(3,4-Dimethyl-9-oxo-9H-thioxanthen-2-yloxy)-2-hydroxypropyl]trimethyl-ammonium chloride]
C57/BL/6 mice [1]; 0 min, just before 4.5-mg/kg
  Blood glucose: 5.1 ± 0.5 mM
C57/BL/6 mice [1]; 30 min after 4.5-mg/kg
  Blood glucose: 4.9 ± 0.4 mM
C57/BL/6 mice [1]; 120 min after 4.5-mg/kg
  Blood glucose: 4.9 ± 0.6 mM
C57/BL/6 mice [2]; CC1 2 mg/kg s.c. −30 min, 0 min
  Blood glucose: 3.7 ± 0.4 mM
C57/BL/6 mice [2]; CC1 2 mg/kg s.c. −30 min, 30 min
  Blood glucose: 6.6 ± 0.4 mM
C57/BL/6 mice [2]; CC1 2 mg/kg s.c. −30 min, 60 min
  Blood glucose: 4.9 ± 0.6 mM
C57/BL/6 mice [2]; CC1 2 mg/kg s.c. −30 min, 120 min
  Blood glucose: 4.4 ± 0.5 mM
C57/BL/6 mice [2]; CC1 2 mg/kg s.c. −60 min, 0 min
  Blood glucose: 3.9 ± 0.6 mM
C57/BL/6 mice [2]; CC1 2 mg/kg s.c. −60 min, 30 min
  Blood glucose: 6.7 ± 0.5 mM
C57/BL/6 mice [2]; CC1 2 mg/kg s.c. −60 min, 60 min
  Blood glucose: 5.2 ± 0.3 mM
C57/BL/6 mice [2]; CC1 2 mg/kg s.c. −60 min, 120 min
  Blood glucose: 4.6 ± 0.3 mM
C57/BL/6 mice [2]; CC1 4.5 mg/kg s.c. −30 min, 0 min
  Blood glucose: 3.6 ± 0.4 mM
C57/BL/6 mice [2]; CC1 4.5 mg/kg s.c. −30 min, 30 min
  Blood glucose: 6.2 ± 0.4 mM
C57/BL/6 mice [2]; CC1 4.5 mg/kg s.c. −30 min, 60 min
  Blood glucose: 4.5 ± 0.3 mM
C57/BL/6 mice [2]; CC1 4.5 mg/kg s.c. −30 min, 120 min
  Blood glucose: 4.2 ± 0.4 mM
C57/BL/6 mice [2]; CC1 4.5 mg/kg s.c. −60 min, 0 min
  Blood glucose: 3.8 ± 0.5 mM
C57/BL/6 mice [2]; CC1 4.5 mg/kg s.c. −60 min, 30 min
  Blood glucose: 6.4 ± 0.3 mM
C57/BL/6 mice [2]; CC1 4.5 mg/kg s.c. −60 min, 60 min
  Blood glucose: 4.5 ± 0.5 mM
C57/BL/6 mice [2]; CC1 4.5 mg/kg s.c. −60 min, 120 min
  Blood glucose: 4.1 ± 0.6 mM
Mice with PC-3 tumor; acute (A): 4.5-mg/kg 60 min prior to glucose on day 25, 0 min
  Blood glucose: 2.3 ± 0.2 mM
Mice with PC-3 tumor; acute (A), 30 min
  Blood glucose: 5.5 ± 0.6 mM
Mice with PC-3 tumor; acute (A), 60 min
  Blood glucose: 4.4 ± 0.7 mM
Mice with PC-3 tumor; acute (A), 120 min
  Blood glucose: 3.5 ± 0.4 mM
Mice with PC-3 tumor; chronic (C): 4.5-mg/kg daily days 12-24, 0 min
  Blood glucose: 1.8 ± 0.4 mM
Mice with PC-3 tumor; chronic (C), 30 min
  Blood glucose: 7.1 ± 0.5 mM
Mice with PC-3 tumor; chronic (C), 60 min
  Blood glucose: 6.5 ± 0.4 mM
Mice with PC-3 tumor; chronic (C), 120 min
  Blood glucose: 4.9 ± 0.6 mM
Mice with PC-3 tumor; chronic + acute (C + A), 0 min
  Blood glucose: 2.1 ± 0.5 mM
Mice with PC-3 tumor; chronic + acute (C + A), 30 min
  Blood glucose: 5.1 ± 0.4 mM
Mice with PC-3 tumor; chronic + acute (C + A), 60 min
  Blood glucose: 3.9 ± 0.4 mM
Mice with PC-3 tumor; chronic + acute (C + A), 120 min
  Blood glucose: 3.1 ± 0.3 mM
ob/ob mice; 4.5-mg/kg daily 13 days, day 14 s.c. 45 min prior to glucose 3-g/kg i.p., 0 min
  Blood glucose: 10.7 ± 0.2 mM
ob/ob mice; 4.5-mg/kg daily 13 days, day 14 s.c. 6 hours prior to glucose 3-g/kg i.p., 0 min
  Blood glucose: 17.8 ± 0.3 mM
ob/ob mice; s.c. 45 min prior to glucose, 30 min
  Blood glucose: 11.9 ± 0.4 mM
ob/ob mice; s.c. 45 min prior to glucose, 60 min
  Blood glucose: 11.4 ± 0.3 mM
ob/ob mice; s.c. 45 min prior to glucose, 120 min
  Blood glucose: 11.0 ± 0.3 mM
ob/ob mice; s.c. 45 min prior to glucose, 180 min
  Blood glucose: 10.9 ± 0.3 mM
ob/ob mice; s.c. 6 hours prior to glucose, 30 min
  Blood glucose: 20.7 ± 0.2 mM
ob/ob mice; s.c. 6 hours prior to glucose, 60 min
  Blood glucose: 20.2 ± 0.2 mM
ob/ob mice; s.c. 6 hours prior to glucose, 120 min
  Blood glucose: 19.6 ± 0.2 mM
ob/ob mice; s.c. 6 hours prior to glucose, 180 min
  Blood glucose: 18.9 ± 0.3 mM
